Measured values from US12590100B2, “Tetrahydro-spiroindoline-pyrrolopyrrole-triones inhibitors of the NRF2-β-TrCP interaction for use in the treatment of fatty liver disease” (Universidad Autonoma De Madrid, priority 2021, dated 2026).
“Also recorded” adds a separate entry of the source.

How the values were obtained:
[1] = tested on: NRF2; assay: HO-1 induction in Nrf2−/− versus Nrf2+/+ MEFs; assay type: cell-based, mouse
Experimental: FIG. 5. PHAR-mediated NRF2 activation is independent of KEAP1 and is responsible for the increase in the expression of its targets. (A-D) Serum-deprived MEFs originating from wild-type (WT) or KEAP1 null (Keap1−/−) mice were treated with 10 μM of PHAR for the indicated times. 0.1% DMSO was used as a vehicle. A), representative immunoblots of NRF2, HO1, KEAP1, LAMINB, and GAPDH as loading controls. B) and C), densitometric analysis of NRF2 and HO1 protein levels of the representative immunoblots of (A), expressed as a ratio of NRF2/LAMINB or HO1/GAPDH. The data is depicted as means±SEM (n=3). Statistical analysis was performed with two-way ANOVA followed by the Bonferroni test to check inter-group differences. D), the mRNA levels of Hmox-1, Nqo1, Aox1, Gc1c, and Gc1m were determined after 8 h of 10 μM PHAR by means of qRT-PCR and normalized by means of average Gapdh, Tbp, and β-actin. The data is depicted as mean±SEM (n=3). Statistical analysis was performed with two-way ANOVA followed by the Bonferroni test to check inter-group differences. *p<0.05; **p<0.01; ***p<0.001 vs. 0 of MEF-WT. (E-H), Serum-deprived MEFs from wild-type (WT) or NRF2 null (Nrf2−/−) mice were subjected to 10 μM of PHAR for the indicated times. 0.1% DMSO was used as a vehicle. E), representative immunoblots of NRF2, HO1, KEAP1, LAMINB, and GAPDH as loading controls. F) and G), densitometric analysis of NRF2 and HO1 protein levels of the representative immunoblots of (E), expressed as a ratio of NRF2/LAMINB or HO1/GAPDH. […] H), the mRNA levels of Hmox-1, Nqo1, Aox1, Gclc, and Gclm were determined after 8 h of 10 μM PHAR by means of qRT-PCR and normalized by means of average Gapdh, Tbp, and β-actin. […]
From a viewpoint of biopharmaceutical usefulness, it is important to determine if PHAR acts on KEAP1/NRF2 interaction, or if it represents, in contrast, a novel approach directed specifically at β-TrCP/NRF2 interaction. […] As an additional control, the HO-1 levels in MEFs originating from NRF2 knock-out (Nrf2^−/−) and wild-type (Nrf2^+/+) mice from the same litter were analyzed by immunoblot. […]

[2] = tested on: C57BL/6 mice treated with LPS; assay: Inflammatory response in LPS-treated mice; assay type: in vivo, mouse
Experimental: FIG. 11. PHAR reduces the inflammatory response in LPS-treated mice. The mice were divided into 4 experimental groups (n=4). Experimental groups 1 and 3 were treated by IP route with vehicle (Tween-80+PBS, 1:13) and experimental groups 2 and 4 with 50 mg/kg of PHAR for 5 days. After the second-to-last administration of the compound, groups 3 and 4 were treated by IP route with 1 mg/kg of LPS for 24 h. Two hours after the last dose of PHAR and twenty-four hours after the administration of LPS, all the mice were sacrificed by extracting the liver protein and total RNA, A), representative immunoblots showing NRF2, HO1, and GAPDH protein levels as the liver extract loading control. B), densitometric analysis of NRF2 and HO1 protein levels of the representative immunoblots shown in (A), expressed as a ratio of NRF2/GAPDH or HO1/GAPDH. The data is depicted as means±SEM (n=4). Statistical analysis was performed with one-way ANOVA followed by the Bonferroni test to compare inter-group differences. **p<0.01; ***p<0.001 vs. vehicle. C), the mRNA levels of Il1β, Il6, and Tnfα were determined by means of qRT-PCR and normalized by means of average Gapdh, Tbp, and β-actin. The data is depicted as mean±SEM (n=4). Statistical analysis was performed with one-way ANOVA followed by the Bonferroni test to check inter-group differences. ***p<0.001 vs. LPS. D) Representative images of hematoxylin and eosin (H&E) staining of mouse liver and immunohistochemical F4/80 staining of inflammatory liver macrophages (Kupffer cells).
To that end, 16 wild-type C57BL/6 mice were divided into 4 experimental groups: vehicle (experimental group 1), PHAR (experimental group 2), LPS (3), and LPS+PHAR (4). After obtaining results as promising as those described in detail in Example 1.6, the inventors decided to carry out the same experimental protocol. Briefly, the mice were treated daily by IP route with 50 mg/kg of PHAR (experimental groups 2 and 4) or vehicle (groups 1 and 3). Two hours after the second-to-last administration, experimental groups 3 and 4 were treated by IP route with […] of LPS. Lastly, the last dose of PHAR was administered on the last day and 24 h after the administration of LPS, all the mice were sacrificed by extracting the liver protein and total RNA.

[3] = mice, IP 50 mg/kg PHAR daily for 5 days

For `O=C1[C@@H]2[C@H](Cc3c[nH]c4ccccc34)N[C@]3(C(=O)Nc4ccc(Cl)cc43)[C@@H]2C(=O)N1c1ccc2c(c1)OCCO2` [PHAR], the “HO-1 increase in MEFs from Nrf2−/− mice” value ([1]; PHAR 10 μM, 2, 4, 8 h) was “not observed”, the “HO-1 levels in MEFs from Nrf2+/+ mice” value ([1]; PHAR 10 μM, 2, 4, 8 h) was “significant increase in HO-1” and the “mRNA levels of NRF2 targets in Nrf2+/+ and Nrf2−/− MEFs” value ([1]; PHAR 10 μM, 8 h) was “The same result was obtained”. The “inflammatory activation of hepatic macrophages (Kupffer cells), F4/80 immunostaining” value ([2]; LPS+PHAR-treated versus LPS-treated mice) was “reduction in F4/80 staining; also recorded: greatly attenuated”, the “liver mRNA of pro-inflammatory cytokines (Il1β, Il6, Tnfα)” value ([2]; LPS-treated mice, prior IP 50 mg/kg PHAR) was “significant reduction in the production of said cytokines” and the “liver HO-1 levels” value [2, 3] was “induction mediated by the compound could be clearly seen”. For the same molecule, the “liver NRF2 levels” value [2, 3] was “increase in NRF2 levels”, the “liver structure (H&E)” value ([2]; mice, IP 50 mg/kg PHAR for 5 days) was “remains unaltered” and the “liver NRF2 and HO-1 levels with combined treatment PHAR+LPS” value ([2]; mice, IP 50 mg/kg PHAR for 5 days plus LPS 24 h) was “synergistic effect”.
